The record followed here is paper PMC12463120, “Phenylalanine‐Based DNA‐Encoded Chemical Libraries for the Discovery of Potent and Selective Small Organic Ligands Against Markers of Cancer and Immune Cells” (Advanced Science, 2025).

Test [1] has as its target T1, PSMA (Homo sapiens, UniProt Q04609).
T1 construct: Avi-tag; made in house; host or cells: CHO cells
Description: Fluorescence polarization (FP) affinity against PSMA. To be noted: fluoresceinated compounds. It counts as binding. The method, then: Hits obtained from FM‐DEL1 (A1452 and A3113) and FM‐DEL2 (A3113/B423) were re‐synthesized as stereo‐chemically pure off‐DNA compounds derivatized with a C6 linker featuring a fluorescein moiety (coupled to fluorescein isothiocyanate‐FITC) (compounds 1–6) [Figure 2E]. The binding affinity against PSMA and GCP3 (KD) of fluoresceinated compounds 1–6 was measured by fluorescence polarization (FP). […] The superiority of compound 5 (S‐configuration) in binding PSMA over compound 6 (R‐configuration) was confirmed by molecular docking studies [Figure S48, Supporting Information]. […] The presence of the sole building block A3113 on the 3‐iodo‐phenylalanine scaffold in the S‐configuration gives adequate selectivity for PSMA over GCP3. The addition of the second building block (B423) enhances both affinity and selectivity for the target.
Selection results were decoded with C++^[ [61] ^] and visualized using MATLAB R2019b (MathWorks). EFs were calculated by dividing the DNA sequence counts for each hit compound by the average DNA sequence count from the corresponding DEL screening. Additionally, Z‐score values were calculated following methods previously published,^[ [60] ^] as present in Supporting Information. […] Affinities of fluorescein‐bearing hits were determined by FP or ELISA measurements. […] Binding kinetics were assessed on a Biacore X100 instrument with the target protein immobilized on a CM5 chip at 4′000 RUs. Cell binding of fluorescent ligands was evaluated using flow cytometry against antigen‐positive and antigen‐negative (wild‐type) cancer cells. in vitro tissue uptake of ^177Lu‐labelled DOTAGA PSMA‐radioligands was measured via autoradiography. […]
(§1) The protein was then concentrated using Vivaspin® 20 centrifugal concentrators (30’000 Da molecular weight cutoff, Sartorius, #VS2012) and then purified by SEC or PD-10 column. The fractions were measured (absorption at 280 nm) on a Nanodrop 2000 Spectrophotometer to combine protein-containing fractions. […]
(§2) 2.11 Fluorescence polarization (FP) measurements with fluoresceine-labelled […]
A general note: Fluorescence polarisation rises when a labelled molecule tumbles more slowly, as on binding a larger partner.

The target in test [2] is T1, PSMA. Description: Size-exclusion chromatography co-elution with PSMA. In kind it is binding. To be noted: recombinant PSMA vs GCP3. The method, then:
(§3) Selection results were decoded with C++^[ [61] ^] and visualized using MATLAB R2019b (MathWorks). EFs were calculated by dividing the DNA sequence counts for each hit compound by the average DNA sequence count from the corresponding DEL screening. Additionally, Z‐score values were calculated following methods previously published,^[ [60] ^] as present in Supporting Information. Hit compounds with high EFs in the target protein selections and low EFs in the negative controls (anti‐target and streptavidin selections) were selected for hit validation activities. All compounds were synthesized using either solid‐phase peptide synthesis or solution‐phase methodologies. Affinities of fluorescein‐bearing hits were determined by FP or ELISA measurements. […] Binding kinetics were assessed on a Biacore X100 instrument with the target protein immobilized on a CM5 chip at 4′000 RUs. Cell binding of fluorescent ligands was evaluated using flow cytometry against antigen‐positive and antigen‐negative (wild‐type) cancer cells. in vitro tissue uptake of ^177Lu‐labelled DOTAGA PSMA‐radioligands was measured via autoradiography. […]
(§4) Protein dissolved in PBS or HEPES buffer was incubated for 30-60 min with 5 equiv. of EZ-LinkTM NHS-LC-Biotin (Thermo Fisher Scientific, #21336). […] The fractions were measured (absorption at 280 nm) on a Nanodrop 2000 Spectrophotometer to combine protein-containing fractions. […]
For orientation: In gel filtration, larger molecules generally elute earlier.

Test [3] concerns HT-1080.hPSMA tumor cells. Description: Flow cytometry on HT-1080.hPSMA cells. To be noted: 250 nM. It counts as cell-based. The procedure: (§5) Selection results were decoded with C++^[ [61] ^] and visualized using MATLAB R2019b (MathWorks). EFs were calculated by dividing the DNA sequence counts for each hit compound by the average DNA sequence count from the corresponding DEL screening. Additionally, Z‐score values were calculated following methods previously published,^[ [60] ^] as present in Supporting Information. Hit compounds with high EFs in the target protein selections and low EFs in the negative controls (anti‐target and streptavidin selections) were selected for hit validation activities. All compounds were synthesized using either solid‐phase peptide synthesis or solution‐phase methodologies. Affinities of fluorescein‐bearing hits were determined by FP or ELISA measurements. […] ACP3 colorimetric inhibition assay was performed with serially diluted compounds at a fixed concentration (5 mM in PBS) of para‐nitrophenyl phosphate as substrate. Binding kinetics were assessed on a Biacore X100 instrument with the target protein immobilized on a CM5 chip at 4′000 RUs. Cell binding of fluorescent ligands was evaluated using flow cytometry against antigen‐positive and antigen‐negative (wild‐type) cancer cells. in vitro tissue uptake of ^177Lu‐labelled DOTAGA PSMA‐radioligands was measured via autoradiography. Prism 9 software (GraphPad Software) was used for data analysis of FP, ELISA, PD‐10, SPR, and enzymatic assay measurements. SPR sensograms were fitted with the Biacore X100 Evaluation Software. Flow cytometry data was processed with the FlowJo 10.4 software.
HT1080.hPSMA and PC3.hACP3 cell lines were generated by lentiviral transduction on wild type cells (HT1080.wt and PC3.wt), according to published procedures9. […]
Cancer cells were detached with an Accutase® cell detachment solution, resuspended in a standard culture medium, and transferred to falcon tubes. Cells were counted and centrifuged at 400 rcf for 3 min. […] Data were acquired halting the measurement at 10´ 000 events on a Cytoflex S flow cytometer (Beckman Coulter), and analyzed using the FlowJo software v10 (BD Biosciences). […]
In general terms: In flow cytometry, cells or beads pass a laser one at a time.

Another test has as its target T2, recombinant human ACP3 (Homo sapiens, UniProt P15309).
T2 construct: made in house; host or cells: CHO cells
T2 sequence (P15309 33-386): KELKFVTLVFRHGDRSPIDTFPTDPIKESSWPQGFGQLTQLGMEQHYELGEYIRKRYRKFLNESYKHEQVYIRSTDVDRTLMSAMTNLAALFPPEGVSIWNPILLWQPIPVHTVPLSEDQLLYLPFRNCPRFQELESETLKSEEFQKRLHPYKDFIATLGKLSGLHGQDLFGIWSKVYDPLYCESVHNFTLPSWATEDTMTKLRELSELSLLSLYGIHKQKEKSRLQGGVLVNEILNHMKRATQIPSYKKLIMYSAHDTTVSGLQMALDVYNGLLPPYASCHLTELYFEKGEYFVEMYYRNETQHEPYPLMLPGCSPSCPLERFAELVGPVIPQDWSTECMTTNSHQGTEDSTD
Description: Fluorescence polarization (FP) affinity against human ACP3. In kind it is binding. To be noted: PSMA ligands as negative controls. The method, then:
as §5, with “SPR sensograms were fitted with the Biacore X100 Evaluation Software. Flow cytometry data was processed with the FlowJo 10.4 software.” left out
as §1, §4, §2

A further test deals with T3, human CAIX (hCAIX) (Homo sapiens, UniProt Q16790).
T3 construct: made in house; host or cells: CHO cells
Briefly: Fluorescence polarization (FP) affinity against hCAIX. In kind it is binding. To be noted: fluorescein derivatives.

The target of the next test is murine CAIX (mCAIX) (Mus musculus, UniProt Q8VHB5). Briefly: Fluorescence polarization (FP) affinity against mCAIX. In kind it is binding. The procedure:
as §3, §4

Another test addresses bovine CAII (bCAII) (Bos taurus, UniProt P00921). Briefly: Fluorescence polarization (FP) affinity against bCAII. It counts as binding. The procedure:
as §3, §4

Test [4] relates to SK-RC-52 renal cell carcinoma cells. Briefly: Flow cytometry on SK-RC-52 cells. It counts as cell-based. To be noted: 100 nM.

pKd: −log10 of the molar value.

T1 sequence (Q04609 whole entry): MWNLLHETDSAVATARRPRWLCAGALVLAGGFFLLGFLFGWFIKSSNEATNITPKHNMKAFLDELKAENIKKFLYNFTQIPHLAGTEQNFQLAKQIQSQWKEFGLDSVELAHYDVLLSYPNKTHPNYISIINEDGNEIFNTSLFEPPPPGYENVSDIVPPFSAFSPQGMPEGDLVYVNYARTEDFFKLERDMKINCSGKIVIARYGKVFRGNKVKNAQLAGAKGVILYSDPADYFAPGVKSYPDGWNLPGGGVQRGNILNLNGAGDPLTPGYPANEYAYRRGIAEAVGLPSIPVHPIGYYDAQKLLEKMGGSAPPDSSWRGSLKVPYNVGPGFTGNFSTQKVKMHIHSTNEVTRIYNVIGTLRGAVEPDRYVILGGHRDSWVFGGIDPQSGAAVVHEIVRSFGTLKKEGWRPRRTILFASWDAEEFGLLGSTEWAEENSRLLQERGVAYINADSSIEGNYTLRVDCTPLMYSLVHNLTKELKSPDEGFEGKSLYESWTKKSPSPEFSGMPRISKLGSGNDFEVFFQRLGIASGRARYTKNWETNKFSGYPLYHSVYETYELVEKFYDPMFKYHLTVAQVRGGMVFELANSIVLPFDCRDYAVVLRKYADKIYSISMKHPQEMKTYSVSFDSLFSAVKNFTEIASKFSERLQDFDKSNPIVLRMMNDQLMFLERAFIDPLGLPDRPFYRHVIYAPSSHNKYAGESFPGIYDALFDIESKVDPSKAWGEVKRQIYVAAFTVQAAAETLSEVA
Chain of bovine CAII (bCAII) (P00921 whole entry): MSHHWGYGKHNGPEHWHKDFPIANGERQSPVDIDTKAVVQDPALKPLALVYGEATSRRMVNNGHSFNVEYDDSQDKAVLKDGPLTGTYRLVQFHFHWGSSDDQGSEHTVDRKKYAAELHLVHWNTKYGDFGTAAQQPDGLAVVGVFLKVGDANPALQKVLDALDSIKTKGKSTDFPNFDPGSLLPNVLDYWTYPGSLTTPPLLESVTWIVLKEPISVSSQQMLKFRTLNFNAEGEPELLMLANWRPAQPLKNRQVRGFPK
Chain of murine CAIX (mCAIX) (Q8VHB5 32-437): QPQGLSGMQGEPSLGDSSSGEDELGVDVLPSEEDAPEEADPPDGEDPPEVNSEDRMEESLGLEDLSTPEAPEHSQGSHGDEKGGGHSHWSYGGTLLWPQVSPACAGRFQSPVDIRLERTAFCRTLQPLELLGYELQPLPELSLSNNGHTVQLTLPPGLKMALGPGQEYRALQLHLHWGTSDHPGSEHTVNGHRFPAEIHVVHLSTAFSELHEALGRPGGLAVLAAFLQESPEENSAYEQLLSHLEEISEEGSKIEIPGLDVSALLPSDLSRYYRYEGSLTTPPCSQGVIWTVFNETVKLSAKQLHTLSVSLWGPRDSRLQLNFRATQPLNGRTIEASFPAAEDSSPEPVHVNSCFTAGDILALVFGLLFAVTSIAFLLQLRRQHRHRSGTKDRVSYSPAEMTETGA
Description for human CAIX (hCAIX): A dilution series of target proteins (i.e., PSMA, GCP3, CAIX, CAII) in the respective formulation buffer were separately prepared in a black 384-well plate (non-binding Greiner small volume plate). Test compounds functionalized with fluorescein were diluted to a concentration between 5 and 10 nM (5 μL) and incubated for 15 min with the protein (final volume corresponding to 10 µL). The fluorophore was excited at 485 nm, and anisotropy was measured at 535 nm on a Spectra Max Paradigm multimode plate reader (Tecan). The experiments were performed in triplicate. KD values measured using this FP method can differ from dissociation constants obtained by other physical methods (e.g., surface plasmon resonance, see section below).

Usually pKd stands for the negative decadic logarithm of the Kd, by convention in mol/L. In the case of `CCOc1ccccc1-c1cccc(C[C@H](NC(=O)N[C@@H](CCC(=O)O)C(=O)O)C(=O)NCCCCCCNC(=S)Nc2ccc3c(c2)C(=O)OC32c3ccc(O)cc3Oc3cc(O)ccc32)c1` [compound 5], the pKd on PSMA [1] is 7.89. The “co-elution with PSMA in size-exclusion chromatography” value on PSMA [2] was “selective and kinetically stable interaction with PSMA”. Also, the “binding to PSMA on the cell surface by flow cytometry” value in test [3] was “able to bind to the antigen expressed on the tumor cell surface”. Besides, the “binding to human ACP3 by FP” value at recombinant human ACP3 was “did not bind”.
In the case of `NS(=O)(=O)c1ccc(-c2cccc(C[C@@H](NC(=O)CCC(=O)N[C@@H](CCCCNC(=S)Nc3ccc4c(c3)C(=O)OC43c4ccc(O)cc4Oc4cc(O)ccc43)C(=O)O)C(=O)NCC3(c4cccs4)CCOCC3)c2)cc1` [compound 21], the values for the pKd on human CAIX (hCAIX), on murine CAIX (mCAIX) and at bovine CAII (bCAII) were 9.02, 8.06 and 6.82, respectively. In addition, the “binding to CAIX on the cell surface by flow cytometry” value in test [4] is reported as “bound to the antigen expressed on the surface of cancer cells”.
